The record followed here is patent publication US12239643B2, “Therapeutic agent for inflammatory diseases, autoimmune diseases, fibrotic diseases, and cancer diseases” (MEIJI SEIKA PHARMA CO., LTD., priority 2018, dated 2025).

Each structure is given as a SMILES string. Some results are limits rather than exact numbers.

What all share (assay type): cell-based
One experiment concerns IL-5. Briefly: Cytokine suppression using human T cells: IL-5. Conditions: T-cell; human CD3-positive T cells, CD3 and CD28 antibody, about 48 hours; read-out: IL-5 Inhibitory Activity, Human T-Cell (Test Example 5). The protocol:
(§1) First, CD3-positive T cells were separated from whole blood by a magnetic bead method using an EasySep cell separation kit. Separated T cells suspended in RPMI-1640 medium were seeded on a 96-well plate previously coated with CD3 antibody (final concentration 3 μg/mL). Further, CD28 antibody (final concentration 5 ng/mL) was added as an IL-5 production stimulus and an IL-13 production stimulus. A test compound dissolved in dimethyl sulfoxide was added to each well, followed by culture at 37° C. under 5% CO2. The culture was carried out for about 18 hours for the evaluation of the amount of TNFα, and for about 48 hours for the evaluation of the amounts of IL-17A, IL-5, and IL-13. […]
(§2) The measurement results obtained by measuring the TNFα inhibitory activity (50% inhibitory concentration) of the test compounds by the above method were evaluated in accordance with the following evaluated basis; A: less than 10 nM, B: 10 nM or more and less than 100 nM, and C: 100 nM or more. In addition, the measurement results obtained by measuring the IL-17A inhibitory activity, IL-5 inhibitory activity, and IL-13 inhibitory activity (50% inhibitory concentration) of the test compounds were evaluated in accordance with the following evaluated basis; A: less than 500 nM, B: 500 nM or more and less than 5000 nM, and C: 5000 nM or more.

Experiment [1] deals with SU-DHL-4 (blood cancer (lymphoma)). Briefly: Antitumor activity: growth inhibition of SU-DHL-4. Conditions: Homo sapiens, 120 h; SU-DHL-4, culturing for 5 days; read-out: 50% growth inhibitory concentration. The protocol:
As antitumor activity, 50% growth inhibitory concentration of various cancer cells (CEM-C1 (blood cancer (leukemia)), SU-DHL-4 (blood cancer (lymphoma)), A549 (lung cancer), HCT-116 (colorectal cancer), and Daoy (brain tumor)) was calculated as follows. First, each of the above cancer cells was seeded on a 384-well plate and cultured overnight at 37° C. under 5% CO2. After that, the test compound was added at various concentrations on the next day, and each number of cells was measured after culturing for 5 days. The 50% growth inhibitory concentration was defined as the test compound concentration at which the number of cells measured is an intermediate value between the number of cells after culture for 5 days under the same conditions without the addition of the test compound and the number of cells at the time of seeding (before the start of culture). The measurement results obtained by measuring the 50% growth inhibitory concentration of the test compound by the above method were evaluated in accordance with the following evaluated basis; A: less than 10 μM, B: 10 μM or more and less than 50 μM, and C: 50 μM or more. As a result of using apremilast as the test compound, the evaluation was C in all cancer cells. On the other hand, as a result of using the compound obtained in Example 248 as the test compound, the evaluation was A in all cancer cells.

The subject of the next experiment is TNFα. Description: Cytokine suppression using human T cells: TNFα. The settings on record: T-cell; human CD3-positive T cells, CD3 antibody, about 18 hours; read-out: TNFα Inhibitory Activity, Human T-Cell (Test Example 5). The protocol: as §1, §2
For the next experiment, the system named is IL-17A. Briefly: Cytokine suppression using whole human blood: IL-17A (phytohaemagglutinin stimulus). Conditions: read-out: IL-17A Inhibitory Activity, Human Whole Blood (Test Example 3). The protocol: (§3) The test compound dissolved in dimethyl sulfoxide was added to a 96-well plate, and RPMI-1640 medium and human peripheral blood containing sodium heparin were added, followed by culture at 37° C. under 5% CO2 for 1 hour. A medium containing only dimethyl sulfoxide instead of the test compound was added to the control well. […]
(§4) After collecting the culture supernatant after culturing, the amount of each cytokine was measured by the sandwich ELISA method. […]
as §2, with “TNFα inhibitory activity and IL-5” for “TNFα”, “100” for “10”, “500” for “100”, “activity” for “activity, IL-5 inhibitory activity,”, “IL-4” for “IL-13”

A further experiment has as its system IL-4. Description: Cytokine suppression using whole human blood: IL-4 (CytoStim and CD28 antibody stimulus). The settings on record: read-out: IL-4 Inhibitory Activity, Human Whole Blood (Test Example 3). The protocol: as §3, §4
as §2, with “TNFα inhibitory activity and IL-5” for “TNFα”, “100” for “10”, “500” for “100”, “activity” for “activity, IL-5 inhibitory activity,”, “IL-4” for “IL-13”

For the compound `CC(C)(O)C(F)(F)Oc1ccc(-c2nccs2)c2oc(N3CC4CC(C3)N4)nc12` [Example 248, 1-((2-(3,6-Diazabicyclo[3.1.1]heptan-3-yl)-7-(thiazol-2-yl)benzo[d]oxazol-4-yl)oxy)-1,1-difluoro-2-methylpropan-2-ol], the IC50 in the experiment with IL-5 was less than 500 nM; in experiment [1] it was less than 10000 nM; in the experiment with TNFα it was less than 10 nM; in the experiment with IL-17A it was less than 500 nM; in the experiment on IL-4 it was less than 500 nM.

Turning to `CCOc1cc([C@@H](CS(C)(=O)=O)N2C(=O)c3cccc(NC(C)=O)c3C2=O)ccc1OC` [apremilast, reference compound], the IC50 in the experiment with IL-5 is not below 5000 nM; in experiment [1], not below 50000 nM; with TNFα it was more than 100 nM; with IL-17A, not below 5000 nM; with IL-4 it was not below 5000 nM.
